Results from US11477982B2, “2-amino-5-oxyalkyl-pyrimidine derivatives and their use for controlling undesired plant growth” (Bayer CropScience Aktiengesellschaft, priority 2017, dated 2022).

Tests used:
Type in all cases: in vivo
[1] = test system: MATIN: Matricaria inodora; assay: Pre-emergence herbicidal effect; conditions: for Herbicidal action against MATIN: pre-emergence, dosage 320 g/ha; for Herbicidal efficacy against MATIN: Table 4b, pre-emergence as titled, dosage 80 g of a.i./ha
From the text: (§1) 1. Pre-Emergence Herbicidal Effect and Crop Plant Compatibility
(§2) Seeds of monocotyledonous and dicotyledonous weed plants and crop plants are placed in plastic or wood fiber pots and covered with soil. The compounds of the invention, formulated in the form of wettable powders (WP) or as emulsion concentrates (EC), are then applied onto the surface of the covering soil as aqueous suspension or emulsion with addition of 0.5% additive at a water application rate of 600 l/ha (converted).
(§3) After the treatment, the pots are placed in a greenhouse and kept under good growth conditions for the trial plants. After about 3 weeks, the effect of the preparations is scored visually in comparison with untreated controls as percentages. For example, 100% activity=the plants have died, 0% activity=like control plants.

[2] = test system: AMARE: Amaranthus retroflexus; assay: Pre-emergence herbicidal effect; conditions: for Herbicidal action against AMARE: pre-emergence; for Herbicidal efficacy against AMARE: Table 4b, pre-emergence as titled, dosage 80 g of a.i./ha
From the text: as §1, §2, §3

[3] = test system: VERPE: Veronica persica; assay: Pre-emergence herbicidal effect; conditions: dosage 320 g/ha
From the text: as §1, §2, §3

[4] = test system: POLCO: Polygonum convolvulus; assay: Pre-emergence herbicidal effect
From the text: as §1, §2, §3

[5] = test system: VIOTR: Viola tricolor; assay: Pre-emergence herbicidal effect; conditions: dosage 320 g/ha
From the text: as §1, §2, §3

[6] = test system: ECHCG: Echinochloa crus-galli; assay: Pre-emergence herbicidal effect; conditions: for Herbicidal action against ECHCG: pre-emergence; for Herbicidal efficacy against ECHCG: Table 4b, pre-emergence as titled, dosage 80 g of a.i./ha
From the text: as §1, §2, §3

[7] = test system: SETVI: Setaria viridis; assay: Pre-emergence herbicidal effect; conditions: for Herbicidal action against SETVI: pre-emergence; for Herbicidal efficacy against SETVI: Table 4b, pre-emergence as titled, dosage 80 g of a.i./ha
From the text: as §1, §2, §3

[8] = test system: LOLRI: Lolium rigidum; assay: Pre-emergence herbicidal effect
From the text: as §1, §2, §3

[9] = test system: ALOMY: Alopecurus myosuroides; assay: Pre-emergence herbicidal effect; conditions: for Herbicidal action against ALOMY: pre-emergence; for Herbicidal efficacy against ALOMY: Table 4b, pre-emergence as titled, dosage 80 g of a.i./ha
From the text: as §1, §2, §3

[10] = test system: ABUTH: Abutilon theophrasti; assay: Pre-emergence herbicidal effect
From the text: as §1, §2, §3

[11] = test system: AVEFA: Avena fatua; assay: Pre-emergence herbicidal effect
From the text: as §1, §2, §3

[12] = test system: HORMU: Hordeum murinum; assay: Pre-emergence herbicidal effect; conditions: for Herbicidal action against HORMU: pre-emergence; for Herbicidal efficacy against HORMU: Table 4b, pre-emergence as titled, dosage 80 g of a.i./ha
From the text: as §1, §2, §3

[13] = test system: PHBPU: Ipomoea purpurea; assay: Pre-emergence herbicidal effect
From the text: as §1, §2, §3

[14] = test system: STEME: Stellaria media; assay: Pre-emergence herbicidal effect; conditions: for Herbicidal efficacy against STEME: Table 4b, pre-emergence as titled, dosage 80 g of a.i./ha
From the text: as §1, §2, §3

[15] = test system: STEME: Stellaria media; assay: Post-emergence herbicidal effect; conditions: dosage 80 g/ha
Method: 2. Post-Emergence Herbicidal Effect and Crop Plant Compatibility
Seeds of monocotyledonous and dicotyledonous weeds and crop plants are placed in sandy loam in plastic or wood-fiber pots, covered with soil and cultivated in a greenhouse under controlled growth conditions, 2 to 3 weeks after sowing, the test plants are treated at the one-leaf stage. The compounds of the invention, formulated in the form of wettable powders (WP) or as emulsion concentrates (EC), are then sprayed onto the green parts of the plants as aqueous suspension or emulsion with addition of 0.5% additive at a water application rate of 600 l/ha (converted). After the test plants had been kept in the greenhouse under optimum growth conditions for about 3 weeks, the activity of the preparations is rated visually in comparison to untreated controls. For example, 100% activity=the plants have died, 0% activity=like control plants.

## Cc1ccc2c(c1)[C@H](Nc1ncc(C(C)OCc3ccc(F)cc3)cn1)[C@@H](C)C2 (stereo partly shown) [Example 1.3]
[1]
  Herbicidal action against MATIN: 100%
[2]; dosage 320 g/ha
  Herbicidal action against AMARE: 100%
[3]
  Herbicidal action against VERPE: 100%
[4]; dosage 320 g/ha
  Herbicidal action against POLCO: 80%
[5]
  Herbicidal action against VIOTR: 100%

## Cc1ccc2c(c1)[C@H](Nc1ncc(C(C)(C)O)c(N)n1)[C@@H](C)C2 [drawing 4, reference compound]
[6]; dosage 80 g/ha
  Herbicidal action against ECHCG: 30%
[7]; dosage 80 g/ha
  Herbicidal action against SETVI: 30%
[8]; dosage 80 g/ha
  Herbicidal action against LOLRI: 40%
[9]; dosage 80 g/ha
  Herbicidal action against ALOMY: 30%
[9]; dosage 320 g/ha
  Herbicidal action against ALOMY: 60%
[10]; dosage 80 g/ha
  Herbicidal action against ABUTH: 20%
[10]; dosage 320 g/ha
  Herbicidal action against ABUTH: 60%
[11]; dosage 80 g/ha
  Herbicidal action against AVEFA: 10 10%
[11]; dosage 320 g/ha
  Herbicidal action against AVEFA: 10 10%

## Cc1ccc2c(c1)[C@H](Nc1ncc(C(C)(O)CC(C)C)cn1)[C@@H](C)C2 (stereo partly shown) [Example 1.25]
[1]
  Herbicidal action against MATIN: 100%
[2]; dosage 320 g/ha
  Herbicidal action against AMARE: 100%
[3]
  Herbicidal action against VERPE: 100%
[4]; dosage 320 g/ha
  Herbicidal action against POLCO: 100%
[5]
  Herbicidal action against VIOTR: 100%

## Cc1ccc2c(c1)[C@H](Nc1ncc(C(C)(C)O)c(C(C)F)n1)[C@@H](C)C2 (stereo partly shown) [Example 1.23]
[6]; dosage 320 g/ha
  Herbicidal action against ECHCG: 100%
[1]
  Herbicidal action against MATIN: 100%
[7]; dosage 320 g/ha
  Herbicidal action against SETVI: 100%
[12]; dosage 320 g/ha
  Herbicidal action against HORMU: 80%
[2]; dosage 320 g/ha
  Herbicidal action against AMARE: 100%
[13]; dosage 320 g/ha
  Herbicidal action against PHBPU: 100%
[3]
  Herbicidal action against VERPE: 100%
[4]; dosage 320 g/ha
  Herbicidal action against POLCO: 100%
[8]; dosage 320 g/ha
  Herbicidal action against LOLRI: 100%
[9]; dosage 320 g/ha
  Herbicidal action against ALOMY: 100%
[10]; dosage 320 g/ha
  Herbicidal action against ABUTH: 100%
[5]
  Herbicidal action against VIOTR: 100%
[14]; pre-emergence, dosage 320 g/ha
  Herbicidal action against STEME: 100%
[11]; dosage 320 g/ha
  Herbicidal action against AVEFA: 100%

## Cc1ccc2c(c1)[C@H](Nc1ncc([C@H](C)O)c(N)n1)[C@@H](C)C2 (racemic) [drawing 15, reference compound]
[15]
  Herbicidal action against STEME: 70%

## Cc1cc2c(s1)CCCC2Nc1ncc(C(C)(C)O)c(C)n1 (stereo not shown) [drawing 18, reference compound]
[6]
  Herbicidal efficacy against ECHCG: 30
[1]
  Herbicidal efficacy against MATIN: 20
[7]
  Herbicidal efficacy against SETVI: 20
[12]
  Herbicidal efficacy against HORMU: 10
[2]
  Herbicidal efficacy against AMARE: 20
[9]
  Herbicidal efficacy against ALOMY: 20
[14]
  Herbicidal efficacy against STEME: 30

## Cc1ccc2c(c1)[C@H](Nc1ncc(C(C)(O)c3ccccc3)cn1)[C@@H](C)C2 (stereo partly shown) [Example 1.21]
[1]
  Herbicidal action against MATIN: 100%
[2]; dosage 320 g/ha
  Herbicidal action against AMARE: 100%
[3]
  Herbicidal action against VERPE: 100%
[4]; dosage 320 g/ha
  Herbicidal action against POLCO: 100%
[5]
  Herbicidal action against VIOTR: 100%

## Cc1ccc2c(c1)[C@H](Nc1ncc(C(C)(C#N)O[Si](C)(C)C)cn1)[C@@H](C)C2 (stereo partly shown) [Example 1.16]
[1]
  Herbicidal action against MATIN: 100%
[2]; dosage 320 g/ha
  Herbicidal action against AMARE: 100%
[3]
  Herbicidal action against VERPE: 100%
[4]; dosage 320 g/ha
  Herbicidal action against POLCO: 100%
[5]
  Herbicidal action against VIOTR: 100%

## Cc1ccc2c(c1)[C@H](Nc1ncc(C(C)(C)O)c(N)n1)[C@@H](C)C2 [drawing 6, reference compound]
[12]; dosage 80 g/ha
  Herbicidal action against HORMU: 20%
[2]; dosage 80 g/ha
  Herbicidal action against AMARE: 40%
[13]; dosage 80 g/ha
  Herbicidal action against PHBPU: 0%
[13]; dosage 320 g/ha
  Herbicidal action against PHBPU: 0%
[4]; dosage 80 g/ha
  Herbicidal action against POLCO: 0%

## Cc1cccc2c1CCCC2Nc1ncc(C(C)(C)O)cn1 (racemic) [Example 1.41]
[1]
  Herbicidal action against MATIN: 100%
[2]; dosage 320 g/ha
  Herbicidal action against AMARE: 100%
[3]
  Herbicidal action against VERPE: 100%
[4]; dosage 320 g/ha
  Herbicidal action against POLCO: 100%
[5]
  Herbicidal action against VIOTR: 100%

## Cc1ccc2c(c1)[C@H](Nc1ncc(C(C)(O)Cc3ccccc3)cn1)[C@@H](C)C2 (stereo partly shown) [Example 1.26]
[1]
  Herbicidal action against MATIN: 100%
[2]; dosage 320 g/ha
  Herbicidal action against AMARE: 100%
[3]
  Herbicidal action against VERPE: 100%
[4]; dosage 320 g/ha
  Herbicidal action against POLCO: 100%
[5]
  Herbicidal action against VIOTR: 100%

## Cc1cc2c(s1)CCCC2Nc1ncc(C(C)O)c(C)n1 (stereo not shown) [drawing 19, reference compound]
[6]
  Herbicidal efficacy against ECHCG: 40
[1]
  Herbicidal efficacy against MATIN: 20
[7]
  Herbicidal efficacy against SETVI: 20
[12]
  Herbicidal efficacy against HORMU: 0
[2]
  Herbicidal efficacy against AMARE: 30
[9]
  Herbicidal efficacy against ALOMY: 10
[14]
  Herbicidal efficacy against STEME: 20
